Measurements as given in US11725036B2, “Modified lipidated relaxin B chain peptides and their therapeutic use” (Sanofi, priority 2018, dated 2023).
Starred links: 1 amine or outer side, 2 acyl side, 3 side chain; linkers in the order of their positions; H or OH if unused. Non-standard residues stand in square brackets, D forms with d. Residues, ends and D or L forms follow the SMILES beside them. Groups on a side chain read outwards from the residue. *: point of attachment. X1 = CCCCCCCCCCCCCCCC(=O)N[C@@H](CCC(=O)N[C@@H](CCC(=O)N[C@@H](CCC(=O)NCCCOCCOCCOCCCNC(=O)CCC(=O)NCCCOCCOCCOCCCNC(=O)CCC(=O)NCCCOCCOCCOCCCN*)C(=O)O)C(=O)O)C(=O)O; Suc = O=C(CCC(=O)[*:2])[*:1]; αMeK = C[C@](N)(CCCCN)C(=O)O; Aib = CC(C)(N)C(=O)O

Target: T1, RXFP1 (Homo sapiens, UniProt Q9HBX9)
T1 construct: OVCAR5 cells expressing endogenous RXFP1; endogenous in cells; host or cells: OVCAR5
T1 sequence (Q9HBX9 1-757): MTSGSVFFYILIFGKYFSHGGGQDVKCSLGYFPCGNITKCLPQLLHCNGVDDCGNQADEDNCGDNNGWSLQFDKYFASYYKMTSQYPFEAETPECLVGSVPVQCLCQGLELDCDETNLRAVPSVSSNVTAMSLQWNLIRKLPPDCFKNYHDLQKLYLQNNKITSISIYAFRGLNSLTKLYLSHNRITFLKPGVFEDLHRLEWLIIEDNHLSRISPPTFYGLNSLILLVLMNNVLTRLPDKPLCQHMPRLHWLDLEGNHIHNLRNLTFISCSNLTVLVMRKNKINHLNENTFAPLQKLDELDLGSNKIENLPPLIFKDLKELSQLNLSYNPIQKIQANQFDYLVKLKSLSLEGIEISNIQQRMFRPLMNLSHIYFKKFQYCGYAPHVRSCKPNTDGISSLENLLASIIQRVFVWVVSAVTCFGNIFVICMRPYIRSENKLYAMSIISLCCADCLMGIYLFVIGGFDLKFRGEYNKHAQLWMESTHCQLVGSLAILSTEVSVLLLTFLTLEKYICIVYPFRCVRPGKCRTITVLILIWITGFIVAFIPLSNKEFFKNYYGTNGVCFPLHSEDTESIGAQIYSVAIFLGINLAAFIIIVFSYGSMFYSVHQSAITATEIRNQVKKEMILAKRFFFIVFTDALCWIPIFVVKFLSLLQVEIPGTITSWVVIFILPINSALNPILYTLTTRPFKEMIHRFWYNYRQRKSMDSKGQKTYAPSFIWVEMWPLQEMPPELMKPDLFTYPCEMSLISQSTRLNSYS
Experiment: OVCAR5 cAMP assay (HTRF)
Assay type: cell-based
Conditions: for EC50: OVCAR 5 cells expressing endogenous RXFP1, cAMP readout; for Emax: OVCAR 5 cells, maximal cAMP relative to H2-relaxin
From the text: OVCAR5 cells expressing endogenous RXFP1 were used to test RXP1 agonist properties of peptides of the invention, and in particular of the peptides of sequence SEQ ID NO: 1-97.
Since RXFP1 is a Gs coupled GPCR, cAMP was used as readout of RXFP1 activation.
Isobutyl Methyl Xanthine (IBMX) was used to inhibit phosphodiesterase activity facilitating cAMP measurements. HTRF (Homogenous Time Resolved Fluorescence) technology was used to detect cAMP due to its great sensitivity.
In summary, OVCAR5 were grown in regular medium (RPMI) containing 10% fetal calf serum (FCS) and 1% antibiotics (penicillin/streptomycin).
Before the experiments, cells were detached with accutase and incubated for 40 minutes at 37° C. with 1 mM (3-isobutyl-1-methylxanthine) IBMX.
Cells were then distributed in 384 black well plates containing increasing concentrations of the different peptides in a fix volume of medium (without FCS).
After an incubation of 30 min at 37° C. in an humid incubator in 5% CO2, the reaction was stopped by adding a fixed volume of a solution containing a lysis buffer and cAMP-D2 (cAMP labeled with the dye d2) and the anti cAMP antibody linked to Europium and used for cAMP detection.
Readout of the experiment were performed on a fluorimeter allowing HTRF measurement. Activation curves were generated by plotting the intracellular value of cAMP versus log 10 of the compound concentration.
The 50% activation concentration (EC50) was calculated by nonlinear regression using the sigmoidal dose-response (variable slope) equation with Prism 5 software.
Emax % was determined as the maximal intracellular value of cAMP for test compound (upper limit of cAMP vs concentration curve) divided by the maximal intracellular value of cAMP for H2-relaxin determined in the same test occasion multiplied by 100. Emax %=100×[cAMPtest cpd]/[cAMPH2-Rlx]

EC50 | Emax | Compound
1.5 nM | 99% | CCCCCCCCCCCCCCCC(=O)N[C@@H](CCC(=O)N[C@@H](CCC(=O)N[C@@H](CCC(=O)NCCCOCCOCCOCCCNC(=O)CCC(=O)NCCCOCCOCCOCCCNC(=O)CCC(=O)NCCCOCCOCCOCCCNC(=O)CCC(=O)NCCCC[C@H](NC(=O)CNC(=O)[C@H](CCC(=O)O)NC(=O)C(C)(C)NC(=O)C(C)(C)NC(=O)[C@@H](NC(=O)[C@H](CCCCNC(C)=O)NC(=O)[C@H](C)NC(=O)[C@H](CCCNC(=N)N)NC(=O)[C@@H](NC(=O)[C@H](CCCCN)NC(=O)[C@H](CCC(=O)O)NC(=O)[C@H](CCCNC(=N)N)NC(=O)CNC(=O)[C@H](CCC(=O)O)NC(=O)[C@H](CC(C)C)NC(C)=O)C(C)C)[C@@H](C)CC)C(=O)N[C@@H](CO)C(=O)N[C@H](C(=O)N[C@@H](Cc1c[nH]c2ccccc12)C(=O)N[C@@H](CO)C(=O)NC(C)(C)C(=O)N[C@@H](CCCNC(=N)N)C(=O)N[C@@H](CCCCN)C(=O)N[C@@H](CCCCNC(C)=O)C(N)=O)[C@@H](C)O)C(=O)O)C(=O)O)C(=O)O [compound 1] (Ac-LEGREKVRAK(Ac)I[Aib][Aib]EGK([Suc-X1])STWS[Aib]RKK(Ac)-NH2)
0.83 nM | 93% | CCCCCCCCCCCCCCCC(=O)N[C@@H](CCC(=O)N[C@@H](CCC(=O)N[C@@H](CCC(=O)NCCCOCCOCCOCCCNC(=O)CCC(=O)NCCCOCCOCCOCCCNC(=O)CCC(=O)NCCCOCCOCCOCCCNC(=O)CCC(=O)NCCCC[C@H](NC(=O)CNC(=O)[C@H](CCC(=O)O)NC(=O)C(C)(C)NC(=O)C(C)(C)NC(=O)[C@@H](NC(=O)[C@H](CCCCNC(C)=O)NC(=O)[C@H](C)NC(=O)[C@H](CCCNC(=N)N)NC(=O)[C@@H](NC(=O)[C@H](CCCCN)NC(=O)[C@H](CCC(=O)O)NC(=O)[C@H](CCCNC(=N)N)NC(=O)CNC(=O)[C@H](CCC(=O)O)NC(=O)[C@H](CC(C)C)NC(C)=O)C(C)C)[C@@H](C)CC)C(=O)N[C@@H](CO)C(=O)N[C@H](C(=O)N[C@@H](Cc1c[nH]c2ccccc12)C(=O)N[C@@H](CO)C(=O)N[C@@](C)(CCCCN)C(=O)N[C@@H](CCCNC(=N)N)C(=O)N[C@@H](C)C(=O)N[C@@H](CCCCNC(C)=O)C(N)=O)[C@@H](C)O)C(=O)O)C(=O)O)C(=O)O [compound 11] (Ac-LEGREKVRAK(Ac)I[Aib][Aib]EGK([Suc-X1])STWS[αMeK]RAK(Ac)-NH2)
1.19 nM | 95% | CCCCCCCCCCCCCCCC(=O)N[C@@H](CCC(=O)N[C@@H](CCC(=O)N[C@@H](CCC(=O)NCCCOCCOCCOCCCNC(=O)CCC(=O)NCCCOCCOCCOCCCNC(=O)CCC(=O)NCCCOCCOCCOCCCNC(=O)CCC(=O)NCCCC[C@H](NC(=O)CNC(=O)[C@H](CCC(=O)O)NC(=O)C(C)(C)NC(=O)C(C)(C)NC(=O)[C@@H](NC(=O)[C@H](CCC(N)=O)NC(=O)[C@H](CCCCNC(C)=O)NC(=O)[C@H](CCCNC(=N)N)NC(=O)[C@@H](NC(=O)[C@H](CCCCN)NC(=O)[C@H](CCC(=O)O)NC(=O)[C@H](CCCNC(=N)N)NC(=O)CNC(=O)[C@H](CCC(=O)O)NC(=O)[C@H](CC(C)C)NC(C)=O)C(C)C)[C@@H](C)CC)C(=O)N[C@@H](CO)C(=O)N[C@H](C(=O)N[C@@H](Cc1c[nH]c2ccccc12)C(=O)N[C@@H](CO)C(=O)NC(C)(C)C(=O)N[C@@H](CCCNC(=N)N)C(=O)N[C@@H](CCCCN)C(=O)N[C@@H](CCCCNC(C)=O)C(N)=O)[C@@H](C)O)C(=O)O)C(=O)O)C(=O)O [compound 65] (Ac-LEGREKVRK(Ac)QI[Aib][Aib]EGK([Suc-X1])STWS[Aib]RKK(Ac)-NH2)
